For data set [1], the system named is THP-1 cells. The data set can be described thus: Cell viability assay (MTT). Particulars: compound 5 μM, 18 hours incubation; normalized to DMSO as 100%; mean. It is filed as cell-based. The procedure, abridged:
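Cells at 10^5/well in RPMI with 10% FBS were exposed to compound at 5 μM final (0.05% DMSO) for 18 h. MTT (0.5 mg/mL) then added for 4-6 h, cells lysed overnight in SDS/HCl, absorbance read at 570 nm against 650 nm reference.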

Data set [2] relates to NF-κB and ISRE. The data set can be described thus: NF-κB and ISRE reporter assays (primary screens), statements in words for both assays. It is filed as cell-based. The following applies: for activity in NF-κB and ISRE assays (in words): with LPS or IFN-α as primary stimulus, compared to compound 1. The procedure, abridged: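 Single 5 μM compound (0.05% DMSO). NF-κB: THP1-Blue cells with 10 μg/mL LPS, 20 h, SEAP by absorbance at 630 nm. ISRE: ISRE-bla THP-1 cells with 100 U/mL IFN-α, 16 h, CCF4-AM 465/535 nm ratio. Both normalized to stimulus alone as 100%, compound 1 plus stimulus as 200%.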

Data set [3] is described as follows: Stability of compound 48 in DMSO stock and in assay media. It is filed as physicochemical. The protocol: However, before proceeding with syntheses of additional acylated analogs, its stability in stock solutions was evaluated since during the assay this compound could behave as a prodrug by undergoing deacetylation to release active compound 1. […] Thus, syntheses of additional acylated analogs were not pursued.

Data set [4] concerns NF-κB. Put plainly: Measurement of NF-κB activation using THP1-Blue NF-κB cells (SEAP reporter, LPS as primary stimulus). It is filed as cell-based. Particulars: for EC50: dose response in the presence of LPS. The procedure, abridged:
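THP1-Blue NF-κB cells (10^5/well, RPMI + 10% FBS) were co-treated with LPS 10 μg/mL and compound 5 μM (final, […]) for 20 h. Supernatant SEAP was read by QuantiBlue colorimetry at 630 nm. Two-point normalization set LPS alone to 100% and compound 1+LPS to 200%.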

The test system of data set [5] is ISRE. Put plainly: Measurement of ISRE activity in ISRE-bla THP-1 cells (FRET, IFN-α as primary stimulus). It counts as cell-based. The following applies: for activity at 5 µM / EC50: Homo sapiens, THP-1; for activity at 5 µM: read-out: ISRE % Activation; for EC50: dose response in the presence of IFN-α. The procedure, abridged: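 Cells at 5×10^4/well in RPMI with 10% dialyzed FBS, treated with compound at 5 μM (0.05% DMSO) plus IFN-α at 100 U/mL (final) for 16 h. CCF4-AM substrate added for 3 h at room temperature. Background-subtracted 465/535 nm emission ratio, 2-point normalized: IFN-α alone 100%, compound 1+IFN-α 200%.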

Data set [6] deals with C57BL/6 (wild-type, WT) mice. The data set can be described thus: In vivo adjuvant activity study (ovalbumin + MPLA + compound, OVA-specific IgG by ELISA). Particulars: coimmunization with MPLA and ovalbumin; for OVA-specific IgG antibody titers: intramuscular, days 0 and 21, compared to MPLA alone. In general terms: In an ELISA, binding on a coated surface is turned into a signal by an enzyme label.

Setting [7] is: compound 5 μM + LPS, 20 hour incubation, two point normalized: compound 1 + LPS = 200%, LPS = 100%, mean.
[8] abbreviates: compound 5 μM + IFN-α 100 U/mL, 16 hours, two point normalized: compound 1 + IFN-α = 200%, IFN-α = 100%, mean.

Entries after “also recorded” stand apart in the source; their conditions may differ.

Turning to `CCOc1ccc(S(=O)(=O)N(C(C)=O)c2cc(OC)c(Cl)cc2OC)cc1` [Compound 48, N-(4-chloro-2,5-dimethoxyphenyl)-N-((4-ethoxyphenyl)sulfonyl)acetamide], the “MTT % Viability” value in data set [1] was 72.0%. Besides, in data set [2], the “activity in NF-κB and ISRE assays (in words)” value (“activity … (in words)” for short) is “active”. Further, the “incubation with assay media” value in data set [3] (assay media, data not shown) is recorded as “release of compound 1”. The “stability of stock in DMSO” value in data set [3] (stock in DMSO) was “stable”.
On to `CCOc1ccc(S(=O)(=O)N(C)c2cc(OC)c(Cl)cc2OC)cc1` [Compound 33, N-(4-chloro-2,5-dimethoxyphenyl)-4-ethoxy-N-methylbenzenesulfonamide], for which the activity at 5 µM in data set [4] (setting [7]) came to 235%; in data set [5] (setting [8]) it was 215%. Also, the EC50 is 690 nM in data set [4] and 840 nM in data set [5]. Moreover, the “MTT % Viability” value in data set [1] is 74.5%. Besides, the “activity … (in words)” value in data set [2] is “equipotent as compound 1”. The “systemic toxicity as indicated by behavior change or weight loss” value in data set [6] was “without demonstrable systemic toxicity”. Moreover, in data set [6], the “OVA-specific IgG antibody titers” value is “statistically significant increases; also recorded: significant enhancement of antibody titers”.
`CCOc1ccc(S(=O)(=O)Nc2cc(OC)c(Cl)cc2OC)cc1` [Compound 1, N-(4-chloro-2,5-dimethoxyphenyl)-4-ethoxybenzenesulfonamide]: the activity at 5 µM in data set [4] (setting [7]) and in data set [5] (setting [8]) was 200% throughout. Further, the “MTT % Viability” value in data set [1] came to 73.5%. In data set [2] (tested alone, without LPS or IFN-α), the “NF-κB or ISRE activity when tested alone” value is reported as “little if any”. The “activity … (in words)” value in data set [2] is “enhanced their activation; also recorded: retained activity; also recorded: sustained NF-κB and ISRE activation”. In addition, the EC50 in data set [5] was determined as 660 nM. Moreover, in data set [6], the “systemic toxicity as indicated by behavior change or weight loss” value is “without demonstrable systemic toxicity”. For the same molecule, the “OVA-specific IgG antibody titers” value in data set [6] was “statistically significant increases; also recorded: significant enhancement of antibody titers”.
In the case of `CCCc1ccc(S(=O)(=O)Nc2cc(OC)c(Cl)cc2OC)cc1` [Compound 16, N-(4-chloro-2,5-dimethoxyphenyl)-4-propylbenzenesulfonamide], the activity at 5 µM turned out to be 102% in data set [4] (setting [7]) and 103% in data set [5] (setting [8]). Also, the “MTT % Viability” value in data set [1] was found to be 85.7%. For the same molecule, the “activity … (in words)” value in data set [2] is “loss of activity”.
In the case of `CCOc1ccc(S(=O)(=O)Nc2cc(OC)ccc2OC)cc1` [Compound 6, N-(2,5-dimethoxyphenyl)-4-ethoxybenzenesulfonamide], the figures for the activity at 5 µM in data set [4] (setting [7]) and in data set [5] (setting [8]) were 116% and 96%, respectively. Also, in data set [1], the “MTT % Viability” value was found to be 73.1%. For the same molecule, the “activity … (in words)” value in data set [2] was “retained activity”.
In the case of `CCOc1ccc(S(=O)(=O)N(CCCNC(=O)OC(C)(C)C)c2cc(OC)c(Cl)cc2OC)cc1` [Compound 52, tert-Butyl (3-((N-(4-Chloro-2,5-dimethoxyphenyl)-4-ethoxyphenyl)sulfonamido)propyl)carbamate], in data set [4] (setting [7]), the “NF-κB % Activation” value is listed as 134%. Besides, the “MTT % Viability” value in data set [1] was 75.6%. Besides, in data set [2], the “activity … (in words)” value is reported as “reduction in activity”. For the same molecule, the “ISRE % Activation” value in data set [5] (setting [8]) is listed as 140%.
Consider `CCOc1ccc(S(=O)(=O)N(CCCN)c2cc(OC)c(Cl)cc2OC)cc1.Cl` [Compound 55, N-(3-aminopropyl)-N-(4-chloro-2,5-dimethoxyphenyl)-4-ethoxybenzenesulfonamide hydrochloride], for which the activity at 5 µM is 189% in data set [4] (setting [7]) and 182% in data set [5] (setting [8]). The EC50 in data set [4] was determined as 3320 nM; in data set [5] it was 3040 nM. The “MTT % Viability” value in data set [1] is 71.0%. Moreover, the “activity … (in words)” value in data set [2] (hydrochloride) was “recovered; also recorded: less potent than compound 1; also recorded: retained activity even though slightly attenuated”.

Broadly, the EC50 is the concentration giving half of the maximal effect.
